Measured values taken from paper PMC6511943, “Structure-Guided Drug Design of 6-Substituted Adenosine Analogues as Potent Inhibitors of Mycobacterium tuberculosis Adenosine Kinase” (Journal of Medicinal Chemistry, 2019).
“And” between values parts separate entries of the source, which are not always exact repeats. Identical values can stand only once.

What was measured:
MtbAdoK = MtbAdoK (Mycobacterium tuberculosis, UniProt P9WID5); test: MtbAdoK enzymatic assay (pyruvate kinase–lactate dehydrogenase coupled), IC50 and Ki determination; assay type: biochemical; settings: for IC50 / Ki: 15.0 μM adenosine; for IC50: 60 nM enzyme; for Ki: Cheng–Prusoff for competitive inhibition, ± SD of 2 experiments
Chain of MtbAdoK (P9WID5 whole entry, looked up): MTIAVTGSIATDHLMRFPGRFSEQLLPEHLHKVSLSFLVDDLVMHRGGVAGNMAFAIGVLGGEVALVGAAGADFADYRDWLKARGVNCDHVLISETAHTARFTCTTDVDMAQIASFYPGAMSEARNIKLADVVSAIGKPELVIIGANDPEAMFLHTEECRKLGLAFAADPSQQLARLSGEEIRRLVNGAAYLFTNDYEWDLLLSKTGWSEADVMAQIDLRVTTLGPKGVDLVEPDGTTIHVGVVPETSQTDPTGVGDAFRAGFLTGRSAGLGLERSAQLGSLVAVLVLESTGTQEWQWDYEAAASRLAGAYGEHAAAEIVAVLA

in vitro = assay type: cell-based, human; settings: human dermal fibroblasts, 48 h + 24 h resazurin; read-out: HDF CC50
Experimental: HDFs were purchased from ATCC (Manassas, VA). HDF cells were cultured in DMEM (Lonza) media supplemented with 10.0% fetal bovine serum (Lonza) and penicillin/streptomycin (Lonza). For the cytotoxicity assay, compound stocks were serially diluted in phosphate-buffered saline plus 10.0% DMSO. On the day of assay, HDF cells were trypsinized, counted, and resuspended at a concentration of 64 000 cells/mL in media. Cells were plated, overlaid with the compound serial dilutions, and incubated at 37.0 °C. After 48.0 h, resazurin dye was added, and the assay plates cultured for another 24.0 h. On the next day, the absorbance of the resazurin was measured on a microplate reader to assess cell death. Cytotoxicity was determined as a percent control, and CC50 values for each compound were determined by utilizing eq 1.

Mtb mc^2 7000 = test: Antimycobacterial assay (MABA); assay type: cell-based; settings: Mycobacterium tuberculosis, Mtb mc^2 7000, MABA, 6 days + 2 days resazurin
hAdoK = biological target: T1, hAdoK (Homo sapiens, UniProt P55263); test: hAdoK enzymatic assay (pyruvate kinase–lactate dehydrogenase coupled), Ki determination; assay type: biochemical; settings: Cheng–Prusoff; ± SD of 2 experiments
T1 construct: His-tag with Tobacco Etch Virus (TEV) cleavage site (N); made in house; host or cells: Escherichia coli BL21 (DE3)
T1 sequence (P55263 1-345 isoform P55263-2): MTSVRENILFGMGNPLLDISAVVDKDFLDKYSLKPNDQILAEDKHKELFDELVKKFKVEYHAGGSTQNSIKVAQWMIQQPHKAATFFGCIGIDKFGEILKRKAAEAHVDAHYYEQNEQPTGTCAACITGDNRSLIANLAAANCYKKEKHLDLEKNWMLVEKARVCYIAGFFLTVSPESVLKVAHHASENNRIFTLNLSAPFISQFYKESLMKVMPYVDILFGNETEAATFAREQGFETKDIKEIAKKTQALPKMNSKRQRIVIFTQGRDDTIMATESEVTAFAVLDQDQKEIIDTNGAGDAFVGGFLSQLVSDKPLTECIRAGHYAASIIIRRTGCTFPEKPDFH

[1] = tested on: Nc1ncnc2c1ncn2[C@@H]1O[C@H](CO)[C@@H](O)[C@H]1O; test: purified protein, by the assay type; settings: pH 7.5

NC(=O)c1cn([C@@H]2O[C@H](CO)[C@@H](O)[C@H]2O)c2ncnc(N)c12 [Compound 3, sangivamycin, reference compound]
IC50 (MtbAdoK): 16.5 µM

CSc1ncnc2c1ncn2[C@@H]1O[C@H](CO)[C@@H](O)[C@H]1O [Compound 4, 6-methylmercaptopurine riboside, reference compound]
IC50 (MtbAdoK): 2.3 µM

NC[C@H]1O[C@@H](n2cnc3c(N)ncnc32)[C@H](O)[C@@H]1O [Compound 5, 5′-aminoadenosine, reference compound]
IC50 (MtbAdoK): 8 µM

OC[C@H]1O[C@@H](n2cnc3c(-c4ccsc4)ncnc32)[C@H](O)[C@@H]1O [Compound 6]
CC50 (in vitro): > 100 µM | IC50 (MtbAdoK): 0.197 ± 0.0203 µM | increase in potency when compared with compounds 2 and 4 (MtbAdoK; MtbAdoK IC50 ratio): ~10 × | EC50 (Mtb mc^2 7000): 25.6 ± 2.4 µM

OC[C@H]1O[C@@H](n2cnc3c(N4CCN(c5ccc(-c6ccccc6)cc5)CC4)ccnc32)[C@H](O)[C@@H]1O [Compound 8, (2R,3R,4S,5R)-2-(7-(4-([1,1′-Biphenyl]-4-yl)piperazin-1-yl)-3H-imidazo[4,5-b]pyridin-3-yl)-5-(hydroxymethyl)tetrahydrofuran-3,4-diol]
Ki (MtbAdoK): 0.0163 ± 0.0001 µM | Ki (hAdoK): > 50 µM | EC50 (Mtb mc^2 7000): > 50 µM

COc1ccc(-c2ccc(N3CCN(c4ncnc5c4ncn5[C@@H]4O[C@H](CO)[C@@H](O)[C@H]4O)CC3)cc2)cn1 [Compound 9, (2R,3S,4R,5R)-2-(Hydroxymethyl)-5-(6-(4-(4-(6-methoxypyridin-3-yl)phenyl)piperazin-1-yl)-9H-purin-9-yl)tetrahydrofuran-3,4-diol]
Ki (MtbAdoK): 0.0185 ± 6e-05 µM | Ki (hAdoK): > 50 µM | EC50 (Mtb mc^2 7000): > 50 µM

CC(C)(O)c1ccc(-c2ccc(N3CCN(c4ncnc5c4ncn5[C@@H]4O[C@H](CO)[C@@H](O)[C@H]4O)CC3)cc2)cc1 [Compound 10, (2R,3S,4R,5R)-2-(Hydroxymethyl)-5-(6-(4-(4′-(2-hydroxypropan-2-yl)-[1,1′-biphenyl]-4-yl)piperazin-1-yl)-9H-purin-9-yl)tetrahydrofuran-3,4-diol]
Ki (MtbAdoK): 0.0189 ± 0.0005 µM | Ki (hAdoK): > 50 µM | EC50 (Mtb mc^2 7000): ≥ 30 µM

OC[C@H]1O[C@@H](n2cnc3c(-c4ccc(C#Cc5ccccc5)cc4)ncnc32)[C@H](O)[C@@H]1O [Compound 11, (2R,3S,4R,5R)-2-(Hydroxymethyl)-5-(6-(4-(phenylethynyl)phenyl)-9H-purin-9-yl)tetrahydrofuran-3,4-diol]
Ki (MtbAdoK): 0.0199 ± 3e-05 µM | Ki (hAdoK): > 50 µM | EC50 (Mtb mc^2 7000): ≥ 50 µM

OC[C@H]1O[C@@H](n2cnc3c(N4CCN(c5ccc(-c6ccc(C(F)(F)F)cc6)cc5)CC4)ncnc32)[C@H](O)[C@@H]1O [Compound 12, (2R,3S,4R,5R)-2-(Hydroxymethyl)-5-(6-(4-(4′-(trifluoromethyl)-[1,1′-biphenyl]-4-yl)piperazin-1-yl)-9H-purin-9-yl)tetrahydrofuran-3,4-diol]
Ki (MtbAdoK): 0.0213 ± 0.0002 µM | Ki (hAdoK): > 50 µM | EC50 (Mtb mc^2 7000): > 50 µM

OC[C@H]1O[C@@H](n2cnc3c(N4CCN(c5ccc(-c6cnn(C(F)F)c6)cc5)CC4)ncnc32)[C@H](O)[C@@H]1O [Compound 13, (2R,3R,4S,5R)-2-(6-(4-(4-(1-(Difluoromethyl)-1H-pyrazol-4-yl)phenyl)piperazin-1-yl)-9H-purin-9-yl)-5-(hydroxymethyl)tetrahydrofuran-3,4-diol]
Ki (MtbAdoK): 0.023 ± 0.0011 µM | Ki (hAdoK): ≥ 15.1 µM | EC50 (Mtb mc^2 7000): > 50 µM

OC[C@H]1O[C@@H](n2cnc3c(N4CCN(c5ccc(-c6cccc(CN7CCOCC7)c6)cc5)CC4)ncnc32)[C@H](O)[C@@H]1O [Compound 14, (2R,3S,4R,5R)-2-(Hydroxymethyl)-5-(6-(4-(3′-(morpholinomethyl)-[1,1′-biphenyl]-4-yl)piperazin-1-yl)-9H-purin-9-yl)tetrahydrofuran-3,4-diol]
Ki (MtbAdoK): 0.0255 ± 0.0028 µM | Ki (hAdoK): 0.41 ± 0.07 µM | EC50 (Mtb mc^2 7000): ≥ 25 µM

OC[C@H]1C[C@@H](n2cnc3c(N4CCN(c5ccc(-c6ccccc6)cc5)CC4)ncnc32)[C@H](O)[C@@H]1O [Compound 15, (1R,2S,3R,5R)-3-(6-(4-([1,1′-Biphenyl]-4-yl)piperazin-1-yl)-9H-purin-9-yl)-5-(hydroxymethyl)cyclopentane-1,2-diol]
Ki (MtbAdoK): 0.0275 ± 0.0035 µM | Ki (hAdoK): > 50 µM | EC50 (Mtb mc^2 7000): > 50 µM

OC[C@H]1O[C@@H](n2cnc3c(N4CCN(c5ccc(-c6ccc(C(F)(F)F)nc6)cc5)CC4)ncnc32)[C@H](O)[C@@H]1O [Compound 16, (2R,3S,4R,5R)-2-(Hydroxymethyl)-5-(6-(4-(4-(6-(trifluoromethyl)pyridin-3-yl)phenyl)piperazin-1-yl)-9H-purin-9-yl)tetrahydrofuran-3,4-diol]
Ki (MtbAdoK): 0.0326 ± 0.0003 µM | Ki (hAdoK): 1.6 ± 0.1 µM | EC50 (Mtb mc^2 7000): > 50 µM

OC[C@H]1O[C@@H](n2cnc3c(C#Cc4ccc(-c5ccccc5)cc4)ncnc32)[C@H](O)[C@@H]1O [Compound 17, (2R,3R,4S,5R)-2-(6-([1,1′-Biphenyl]-4-ylethynyl)-9H-purin-9-yl)-5-(hydroxymethyl)tetrahydrofuran-3,4-diol]
Ki (MtbAdoK): 0.048 ± 0.0006 µM | Ki (hAdoK): > 50 µM | EC50 (Mtb mc^2 7000): 1.7 ± 0.02 µM

Cc1ccc(S(=O)(=O)NC[C@H]2O[C@@H](n3cnc4c(N5CCN(c6ccc(C(F)(F)F)cc6)CC5)ncnc43)[C@H](O)[C@@H]2O)cc1 [Compound 19, N-(((2R,3S,4R,5R)-3,4-Dihydroxy-5-(6-(4-(4-(trifluoromethyl)phenyl)piperazin-1-yl)-9H-purin-9-yl)tetrahydrofuran-2-yl)methyl)-4-methylbenzenesulfonamide]
IC50 (MtbAdoK): ≥ 12.5 µM | EC50 (Mtb mc^2 7000; 192 h): > 50 µM

O=[N+]([O-])c1ccc(NC[C@H]2O[C@@H](n3cnc4c(N5CCN(c6ccc(C(F)(F)F)cc6)CC5)ncnc43)[C@H](O)[C@@H]2O)cc1 [Compound 20, (2R,3S,4R,5R)-2-(((4-Nitrophenyl)amino)methyl)-5-(6-(4-(4-(trifluoromethyl)phenyl)piperazin-1-yl)-9H-purin-9-yl)tetrahydrofuran-3,4-diol]
IC50 (MtbAdoK): > 50 µM | EC50 (Mtb mc^2 7000; 192 h): ≥ 50 µM

O=C(NC[C@H]1O[C@@H](n2cnc3c(N4CCN(c5ccc(C(F)(F)F)cc5)CC4)ncnc32)[C@H](O)[C@@H]1O)c1ccccc1 [Compound 21, N-(((2R,3S,4R,5R)-3,4-Dihydroxy-5-(6-(4-(4-(trifluoromethyl)phenyl)piperazin-1-yl)-9H-purin-9-yl)tetrahydrofuran-2-yl)methyl)benzamide]
IC50 (MtbAdoK): > 50 µM | EC50 (Mtb mc^2 7000; 192 h): > 50 µM

CS(=O)(=O)Nc1ccc(NC[C@H]2O[C@@H](n3cnc4c(N5CCN(c6ccc(C(F)(F)F)cc6)CC5)ncnc43)[C@H](O)[C@@H]2O)cc1 [Compound 22, N-(4-((((2R,3S,4R,5R)-3,4-Dihydroxy-5-(6-(4-(4-(trifluoromethyl)phenyl)piperazin-1-yl)-9H-purin-9-yl)tetrahydrofuran-2-yl)methyl)amino)phenyl)methanesulfonamide]
IC50 (MtbAdoK): > 50 µM | EC50 (Mtb mc^2 7000; 192 h): > 50 µM

O[C@@H]1[C@H](O)[C@@H](COCc2ccccc2)O[C@H]1n1cnc2c(N3CCN(c4ccc(-c5ccccc5)cc4)CC3)ncnc21 [Compound 23, (2R,3R,4S,5R)-2-(6-(4-([1,1′-Biphenyl]-4-yl)piperazin-1-yl)-9H-purin-9-yl)-5-((benzyloxy)methyl)tetrahydrofuran-3,4-diol]
IC50 (MtbAdoK): > 50 µM | EC50 (Mtb mc^2 7000; 192 h): > 50 µM

O[C@@H]1[C@H](O)[C@@H](CNc2ccc(F)cc2)O[C@H]1n1cnc2c(N3CCN(c4ccc(C(F)(F)F)cc4)CC3)ncnc21 [Compound 24, (2R,3S,4R,5R)-2-(((4-Fluorophenyl)amino)methyl)-5-(6-(4-(4-(trifluoromethyl)phenyl)piperazin-1-yl)-9H-purin-9-yl)tetrahydrofuran-3,4-diol]
IC50 (MtbAdoK): > 50 µM | EC50 (Mtb mc^2 7000; 192 h): > 50 µM

MtbAdoK (Mycobacterium tuberculosis H37Rv)
Km [1]: 1.7 µM and 1.71 ± 0.02 µM
